Source: PubChem BioAssay AID248 (DTP/NCI, 2004)
Toxic doses and inconclusive results are not listed. Cut-off read from the data, not from the text of the source: active = T/C of 150% or more; inactive = T/C below 125%.

Tested on: L1210 leukemia ip in BDF1 mice, survival T/C
Assay: NCI In Vivo Anticancer Drug Screen. Data for tumor model L1210 Leukemia (intraperitoneal) in B6D2F1 (BDF1) mice
Conditions: endpoint: mean survival time, higher = longer survival
Outline: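 Antitumor effect is assessed in tumor-bearing animals. Survival in the compound arm is compared with a vehicle-dosed control arm and expressed as their quotient.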

[1] = dose: 100.0 mg/kg/injection, schedule: Q01DX001 (ip), vehicle: saline
[2] = dose: 100.0 mg/kg/injection, schedule: Q04DX003 (ip), vehicle: saline
[3] = dose: 200.0 mg/kg/injection, schedule: Q01DX001 (ip), vehicle: saline
[4] = dose: 200.0 mg/kg/injection, schedule: Q04DX003 (ip), vehicle: saline
[5] = dose: 400.0 mg/kg/injection, schedule: Q01DX001 (ip), vehicle: saline
[6] = dose: 400.0 mg/kg/injection, schedule: Q04DX003 (ip), vehicle: saline
[7] = dose: 50.0 mg/kg/injection, schedule: Q01DX001 (ip), vehicle: saline
[8] = dose: 100.0 mg/kg/injection, schedule: Q01DX009 (ip), vehicle: Klucel (hydroxypropylcellulose) (HPC)
[9] = dose: 400.0 mg/kg/injection, schedule: Q01DX009 (ip), vehicle: Klucel (hydroxypropylcellulose) (HPC)
[10] = dose: 100.0 mg/kg/injection, schedule: Q04DX003 (ip), vehicle: Klucel (hydroxypropylcellulose) (HPC)
[11] = dose: 200.0 mg/kg/injection, schedule: Q04DX003 (ip), vehicle: Klucel (hydroxypropylcellulose) (HPC)
[12] = dose: 400.0 mg/kg/injection, schedule: Q04DX003 (ip), vehicle: Klucel (hydroxypropylcellulose) (HPC)
[13] = dose: 100.0 mg/kg/injection, schedule: Q01DX009 (ip), vehicle: saline with Tween-80
[14] = dose: 200.0 mg/kg/injection, schedule: Q01DX009 (ip), vehicle: saline with Tween-80
[15] = dose: 200.0 mg/kg/injection, schedule: Q01DX009 (ip), vehicle: Klucel (hydroxypropylcellulose) (HPC)
[16] = dose: 50.0 mg/kg/injection, schedule: Q01DX009 (ip), vehicle: saline with Tween-80
[17] = dose: 100.0 mg/kg/injection, schedule: Q01DX001 (ip), vehicle: carboxymethylcellulose (CMC)
[18] = dose: 400.0 mg/kg/injection, schedule: Q01DX001 (ip), vehicle: carboxymethylcellulose (CMC)

Measured: T/C

Nc1nc2c(c(-c3ccccc3)n1)CN(CCCC(=O)O)C2=O
inactive: [1] 103 % of control | [2] 100 % of control | [3] 105 % of control | [4] 98 % of control | [5] 97 % of control | [6] 100 % of control

O=C(CCCC(=O)NNC(=O)Nc1cccc([N+](=O)[O-])c1)NNC(=O)Nc1cccc([N+](=O)[O-])c1
inactive: [7] 102 % of control | [1] 102 % of control | [3] 96 % of control | [5] 102 % of control

CCOc1cc(OCC)c(OCC)cc1C=C(C#N)C#N
inactive: [8] 91 % of control | [9] 88 % of control

O=C(O)C(Cc1cnc[nH]1)Nc1nc(NC(Cc2cnc[nH]2)C(=O)O)[nH]c(=O)n1 (configuration not stated)
inactive: dose: 6.25 mg/kg/injection, schedule: Q01DX009 (ip), vehicle: Klucel (hydroxypropylcellulose) (HPC) 101 % of control | dose: 12.5 mg/kg/injection, schedule: Q01DX009 (ip), vehicle: Klucel (hydroxypropylcellulose) (HPC) 108 % of control | dose: 25.0 mg/kg/injection, schedule: Q01DX009 (ip), vehicle: Klucel (hydroxypropylcellulose) (HPC) 115 % of control

CC(=O)Nc1ccccc1C[P+](c1ccccc1)(c1ccccc1)c1ccccc1
inactive: dose: 25.0 mg/kg/injection, schedule: Q04DX003 (ip), vehicle: Klucel (hydroxypropylcellulose) (HPC) 97 % of control | dose: 50.0 mg/kg/injection, schedule: Q04DX003 (ip), vehicle: Klucel (hydroxypropylcellulose) (HPC) 98 % of control | [10] 100 % of control

O=C(NCCO)NCCO
inactive: [2] 95 % of control | [4] 98 % of control | [6] 123 % of control

COc1ccc(OC)c(C(=O)CCCCCCCCC(=O)c2cc(OC)ccc2OC)c1
inactive: [10] 104 % of control | [11] 104 % of control | [12] 90 % of control

C/C(=N/N(CCCCN(/N=C(/C)c1ccccc1)c1ccccc1)c1ccccc1)c1ccccc1
inactive: [7] 97 % of control | [1] 95 % of control | [3] 92 % of control | [5] 92 % of control

OCCCCN1CCCCC1
inactive: [1] 106 % of control | [3] 101 % of control

CC(C)(C)OC(=O)C1(c2ccccc2)OC1c1ccccc1 (configuration not stated)
inactive: [10] 105 % of control | [11] 100 % of control | [12] 96 % of control

COc1ccc(NC(=O)CC(C)(C)C(=O)O)cc1
inactive: [13] 94 % of control | [14] 92 % of control | dose: 400.0 mg/kg/injection, schedule: Q01DX009 (ip), vehicle: saline with Tween-80 90 % of control

CCCCn1cc(S(=O)(=O)Nc2ccccc2)c(=O)[nH]c1=O
inactive: dose: 37.5 mg/kg/injection, schedule: Q01DX001 (ip), vehicle: saline with Tween-80 104 % of control | dose: 75.0 mg/kg/injection, schedule: Q01DX001 (ip), vehicle: saline with Tween-80 98 % of control | dose: 150.0 mg/kg/injection, schedule: Q01DX001 (ip), vehicle: saline with Tween-80 98 % of control

CCOC1=C(NC(C)=O)C(=O)c2ccccc2C1=O
inactive: dose: 75.0 mg/kg/injection, schedule: Q01DX001 (ip), vehicle: other 100 % of control

CCCCCCCCCCCCCCCCOc1ccccn1
inactive: [8] 96 % of control | [10] 92 % of control | [15] 96 % of control | [11] 95 % of control | [9] 98 % of control | [12] 90 % of control

CCOC(=O)NCCNC(=O)OCC
inactive: dose: 75.0 mg/kg/injection, schedule: Q01DX001 (ip), vehicle: Klucel (hydroxypropylcellulose) (HPC) 105 % of control | dose: 150.0 mg/kg/injection, schedule: Q01DX001 (ip), vehicle: Klucel (hydroxypropylcellulose) (HPC) 95 % of control | dose: 300.0 mg/kg/injection, schedule: Q01DX001 (ip), vehicle: Klucel (hydroxypropylcellulose) (HPC) 100 % of control

NC(N)=N/C(N)=N\c1nn[nH]n1
inactive: dose: 100.0 mg/kg/injection, schedule: Q01DX001 (ip), vehicle: saline sonified 96 % of control | dose: 100.0 mg/kg/injection, schedule: Q01DX009 (ip), vehicle: saline sonified 91 % of control | dose: 200.0 mg/kg/injection, schedule: Q01DX001 (ip), vehicle: saline sonified 100 % of control | dose: 400.0 mg/kg/injection, schedule: Q01DX001 (ip), vehicle: saline sonified 93 % of control | dose: 400.0 mg/kg/injection, schedule: Q01DX009 (ip), vehicle: saline sonified 92 % of control

O=C(/C=C\c1ccccc1[N+](=O)[O-])C(=O)/C=C/c1ccccc1[N+](=O)[O-]
inactive: dose: 100.0 mg/kg/injection, schedule: Q01DX001 (ip), vehicle: Klucel (hydroxypropylcellulose) (HPC) 93 % of control | dose: 200.0 mg/kg/injection, schedule: Q01DX001 (ip), vehicle: Klucel (hydroxypropylcellulose) (HPC) 92 % of control | dose: 400.0 mg/kg/injection, schedule: Q01DX001 (ip), vehicle: Klucel (hydroxypropylcellulose) (HPC) 88 % of control

O=C(N/C=C/NC(=O)NCc1ccco1)NCc1ccco1
inactive: [8] 97 % of control | [15] 87 % of control

CCCCN(CCCC)C(=O)N(CCCC)CCCC
inactive: dose: 50.0 mg/kg/injection, schedule: Q01DX001 (ip), vehicle: saline with Tween-80 98 % of control | dose: 100.0 mg/kg/injection, schedule: Q01DX001 (ip), vehicle: saline with Tween-80 107 % of control | dose: 200.0 mg/kg/injection, schedule: Q01DX001 (ip), vehicle: saline with Tween-80 101 % of control

CCCCCC1SC1CC1SC1CCCCCCCC(=O)N1CCOCC1 (configuration not stated)
inactive: [13] 98 % of control

O=[P+](O)c1ccccc1
inactive: dose: 100.0 mg/kg/injection, schedule: Q01DX009 (ip), vehicle: saline 94 % of control | [2] 103 % of control | dose: 200.0 mg/kg/injection, schedule: Q01DX009 (ip), vehicle: saline 100 % of control | [4] 98 % of control | dose: 400.0 mg/kg/injection, schedule: Q01DX009 (ip), vehicle: saline 100 % of control | [6] 101 % of control

c1ccc(CNc2ncn[nH]2)cc1
inactive: [16] 95 % of control | [13] 103 % of control | [14] 95 % of control

OCCC=C(c1ccccc1)c1ccccc1
inactive: [16] 107 % of control | [13] 100 % of control | [14] 104 % of control

C=CCc1cc(Cl)ccc1OCC(=O)O
inactive: dose: 100.0 mg/kg/injection, schedule: Q01DX009 (ip), vehicle: gum acacia 97 % of control | dose: 200.0 mg/kg/injection, schedule: Q01DX009 (ip), vehicle: gum acacia 96 % of control

O=[N+]([O-])c1cc(Cl)cc2c1nc(Cl)c1ccccc12
inactive: [8] 94 % of control | [10] 100 % of control | [15] 91 % of control | [11] 98 % of control | [9] 91 % of control | [12] 100 % of control

O=C(/C=C/c1ccccc1)Nc1cc(Cl)ccc1Cl
inactive: [8] 110 % of control | [10] 97 % of control | [15] 114 % of control | [11] 89 % of control | [9] 96 % of control | [12] 94 % of control

CC(=O)[O][Hg][CH]1CCCCC1O (configuration not stated)
inactive: dose: 5.0 mg/kg/injection, schedule: Q01DX001 (ip), vehicle: saline 103 % of control | dose: 10.0 mg/kg/injection, schedule: Q01DX001 (ip), vehicle: saline 95 % of control | dose: 12.3 mg/kg/injection, schedule: Q01DX009 (ip), vehicle: saline with Tween-80 106 % of control | dose: 20.0 mg/kg/injection, schedule: Q01DX001 (ip), vehicle: saline 97 % of control | dose: 40.0 mg/kg/injection, schedule: Q01DX001 (ip), vehicle: saline 95 % of control | dose: 80.0 mg/kg/injection, schedule: Q01DX001 (ip), vehicle: saline 102 % of control

CCOP(=S)(NN=C1CCCC1)OCC
inactive: [1] 95 % of control | [3] 95 % of control

CC(=O)CCNc1ccc(O)c2c1C(=O)c1ccccc1C2=O
inactive: [17] 96 % of control | dose: 200.0 mg/kg/injection, schedule: Q01DX001 (ip), vehicle: carboxymethylcellulose (CMC) 89 % of control | [18] 94 % of control

O=C(O)CN(CCN(CC(=O)O)CC(=O)O)CCN(CC(=O)O)CC(=O)O
inactive: [17] 93 % of control | [18] 96 % of control
